Assay results taken from patent US6852759B2, “Process for the synthesis of trans-alkenoic acids, use thereof” (priority 2002, dated 2005).
Like-named read-outs stand apart in the source and are kept apart here. Marks after values point to notes of the source that are not given here.

How the values were obtained:
[1] = test system: CCl4 induced hepatic injury in rats; assay: Hepatoprotective activity, curative study, CCl4; format: in vivo
[2] = test system: acetaminophen (APAP) in mice; assay: Hepatoprotective activity, prophylactic study, acetaminophen (APAP) after diethyl-ether; format: in vivo
[3] = test system: acetaminophen (APAP) in mice; assay: Hepatoprotective activity, curative study, acetaminophen (APAP) after diethyl-ether; format: in vivo
[4] = test system: CCl4 administration in mice
[5] = 12.5 mg/kg p.o. + CCl4, curative
[6] = 100 mg/kg p.o. + CCl4, curative
[7] = TCA alone 100 mg/kg p.o., no CCl4, curative study
[8] = 12.5 mg/kg p.o. + APAP, prophylactic
[9] = 25 mg/kg p.o. + APAP, prophylactic
[10] = 50 mg/kg p.o. + APAP, prophylactic
[11] = 100 mg/kg p.o. + APAP, prophylactic
[12] = TCA alone 100 mg/kg p.o., no APAP, prophylactic study
[13] = 12.5 mg/kg p.o. + APAP, curative
[14] = 100 mg/kg p.o. + APAP, curative
[15] = TCA alone 100 mg/kg p.o., no APAP, curative study
[16] = 12.5 mg/kg p.o. 1 h before CCl4, mice
[17] = 25 mg/kg p.o. 1 h before CCl4, mice
[18] = 50 mg/kg p.o. 1 h before CCl4, mice
[19] = 100 mg/kg p.o. 1 h before CCl4, mice

CCCCCCCC/C=C/CCCCCCCCCCCCCC(=O)O [TCA, t-Tetracos-15-enoic acid]
Serum ALP [1, 5]: 51.81 ± 3.94^NS μmole of p-nitrophenol formed/min/L | Serum ALP, hepatoprotective activity percent [1, 5]: (27.87 ± 9.48) percent | Serum Bilirubin [1, 5]: 0.54 ± 0.02 mg % | Serum Bilirubin, hepatoprotective activity percent [1, 5]: (44.52 ± 3.66) percent | Serum GOT [1, 5]: 524.23 ± 34.93 Units | Serum GOT, hepatoprotective activity percent [1, 5]: (37.12 ± 5.14) percent | Serum GPT [1, 5]: 1001.86 ± 48.55 Units | Serum GPT, hepatoprotective activity percent [1, 5]: (35.59 ± 3.37) percent | Serum Triglycerides [1, 5]: 12.57 ± 0.61^NS mg % | Serum Triglycerides, hepatoprotective activity percent [1, 5]: (24.12 ± 10.07) percent | Serum ALP ([1]; 25 mg/kg p.o. + CCl4, curative): 50.92 ± 1.62 μmole of p-nitrophenol formed/min/L | Serum ALP, hepatoprotective activity percent ([1]; 25 mg/kg p.o. + CCl4, curative): (34.03 ± 3.89) percent | Serum Bilirubin ([1]; 25 mg/kg p.o. + CCl4, curative): 0.47 ± 0.03 mg % | Serum Bilirubin, hepatoprotective activity percent ([1]; 25 mg/kg p.o. + CCl4, curative): (53.51 ± 4.06) percent | Serum GOT ([1]; 25 mg/kg p.o. + CCl4, curative): 448.28 ± 54.88 Units | Serum GOT, hepatoprotective activity percent ([1]; 25 mg/kg p.o. + CCl4, curative): (48.31 ± 8.808) percent | Serum GPT ([1]; 25 mg/kg p.o. + CCl4, curative): 772.68 ± 47.66 Units | Serum GPT, hepatoprotective activity percent ([1]; 25 mg/kg p.o. + CCl4, curative): (51.52 ± 3.31) percent | Serum Triglycerides ([1]; 25 mg/kg p.o. + CCl4, curative): 11.81 ± 1.05^NS mg % | Serum Triglycerides, hepatoprotective activity percent ([1]; 25 mg/kg p.o. + CCl4, curative): (36.23 ± 18.23) percent | Serum ALP ([1]; 50 mg/kg p.o. + CCl4, curative): 43.63 ± 2.82 μmole of p-nitrophenol formed/min/L | Serum ALP, hepatoprotective activity percent ([1]; 50 mg/kg p.o. + CCl4, curative): (51.57 ± 6.78) percent | Serum Bilirubin ([1]; 50 mg/kg p.o. + CCl4, curative): 0.39 ± 0.02 mg % | Serum Bilirubin, hepatoprotective activity percent ([1]; 50 mg/kg p.o. + CCl4, curative): (64.25 ± 3.76) percent | Serum GOT ([1]; 50 mg/kg p.o. + CCl4, curative): 365.43 ± 29.43 Units | Serum GOT, hepatoprotective activity percent ([1]; 50 mg/kg p.o. + CCl4, curative): (60.50 ± 4.33) percent | Serum GPT ([1]; 50 mg/kg p.o. + CCl4, curative): 582.12 ± 37.77 Units | Serum GPT, hepatoprotective activity percent ([1]; 50 mg/kg p.o. + CCl4, curative): (64.76 ± 2.62) percent | Serum Triglycerides ([1]; 50 mg/kg p.o. + CCl4, curative): 11.06 ± 0.61 mg % | Serum Triglycerides, hepatoprotective activity percent ([1]; 50 mg/kg p.o. + CCl4, curative): (48.86 ± 10.64) percent | Serum ALP [1, 6]: 32.93 ± 2.13 μmole of p-nitrophenol formed/min/L | Serum ALP, hepatoprotective activity percent [1, 6]: (77.31 ± 5.13) percent | Serum Bilirubin [1, 6]: 0.29 ± 0.02 mg % | Serum Bilirubin, hepatoprotective activity percent [1, 6]: (76.54 ± 3.66) percent | Serum GOT [1, 6]: 318.96 ± 16.15 Units | Serum GOT, hepatoprotective activity percent [1, 6]: (67.35 ± 2.38) percent | Serum GPT [1, 6]: 457.55 ± 18.18 Units | Serum GPT, hepatoprotective activity percent [1, 6]: (73.41 ± 1.26) percent | Serum Triglycerides [1, 6]: 10.37 ± 0.65 mg % | Serum Triglycerides, hepatoprotective activity percent [1, 6]: (61.02 ± 11.24) percent | Serum ALP [1, 7]: 25.84 ± 2.32 μmole of p-nitrophenol formed/min/L | Serum Bilirubin [1, 7]: 0.16 ± 0.02 mg % | Serum GOT [1, 7]: 82.13 ± 10.59 Units | Serum GPT [1, 7]: 92.18 ± 15.75 Units | Serum Triglycerides [1, 7]: 6.98 ± 0.86 mg % | Serum ALP [2, 8]: 50.41 ± 3.07 μmole of p-nitrophenel formed/min/L | Serum ALP, hepatoprotective activity percent [2, 8]: (21.27 ± 9.50) percent | Serum GOT [2, 8]: 1079.43 ± 98.66 Units | Serum GOT, hepatoprotective activity percent [2, 8]: (25.66 ± 7.72) percent | Serum GPT [2, 8]: 2182.19 ± 137.86 Units | Serum GPT, hepatoprotective activity percent [2, 8]: (22.86 ± 5.31) percent | Serum Triglycerides [2, 8]: 14.72 ± 0.68 mg % | Serum Triglycerides, hepatoprotective activity percent [2, 8]: (28.28 ± 8.27) percent | Serum ALP [2, 9]: 46.23 ± 1.73 μmole of p-nitrophenel formed/min/L | Serum ALP, hepatoprotective activity percent [2, 9]: (34.15 ± 5.39) percent | Serum GOT [2, 9]: 880.10 ± 60.29 Units | Serum GOT, hepatoprotective activity percent [2, 9]: (41.26 ± 4.72) percent | Serum GPT [2, 9]: 1696.53 ± 48.31 Units | Serum GPT, hepatoprotective activity percent [2, 9]: (41.57 ± 1.86) percent | Serum Triglycerides [2, 9]: 13.47 ± 0.89 mg % | Serum Triglycerides, hepatoprotective activity percent [2, 9]: (43.32 ± 10.80) percent | Serum ALP [2, 10]: 41.44 ± 1.27 μmole of p-nitrophenel formed/min/L | Serum ALP, hepatoprotective activity percent [2, 10]: (49.04 ± 3.94) percent | Serum GOT [2, 10]: 619.36 ± 88.89 Units | Serum GOT, hepatoprotective activity percent [2, 10]: (61.67 ± 6.96) percent | Serum GPT [2, 10]: 1066.99 ± 118.14 Units | Serum GPT, hepatoprotective activity percent [2, 10]: (65.82 ± 4.55) percent | Serum Triglycerides [2, 10]: 12.34 ± 0.85 mg % | Serum Triglycerides, hepatoprotective activity percent [2, 10]: (56.84 ± 10.23) percent | Serum ALP [2, 11]: 35.08 ± 2.18 μmole of p-nitrophenel formed/min/L | Serum ALP, hepatoprotective activity percent [2, 11]: (68.82 ± 6.78) percent | Serum GOT [2, 11]: 310.53 ± 45.32 Units | Serum GOT, hepatoprotective activity percent [2, 11]: (85.85 ± 4.25) percent | Serum GPT [2, 11]: 539.60 ± 51.65 Units | Serum GPT, hepatoprotective activity percent [2, 11]: (86.13 ± 1.99) percent | Serum Triglycerides [2, 11]: 10.87 ± 0.69 mg % | Serum Triglycerides, hepatoprotective activity percent [2, 11]: (74.48 ± 8.37) percent | Serum ALP [2, 12]: 27.15 ± 2.92 μmole of p-nitrophenel formed/min/L | Serum GOT [2, 12]: 106.86 ± 30.15 Units | Serum GPT [2, 12]: 146.00 ± 32.15 Units | Serum Triglycerides [2, 12]: 7.77 ± 0.56 mg % | Serum ALP [3, 13]: 50.41 ± 3.07^NS μmole of p-nitophenol formed/min/L | Serum ALP, hepatoprotective activity percent [3, 13]: (21.27 ± 9.50) percent | Serum GOT [3, 13]: 1079.43 ± 98.66^NS Units | Serum GOT, hepatoprotective activity percent [3, 13]: (25.66 ± 7.72) percent | Serum GPT [3, 13]: 431.85 ± 25.52 Units | Serum GPT, hepatoprotective activity percent [3, 13]: (49.67 ± 2.81) percent | Serum Triglycerides [3, 13]: 14.72 ± 0.68^NS mg % | Serum Triglycerides, hepatoprotective activity percent [3, 13]: (28.28 ± 8.27) percent | Serum ALP ([3]; 25 mg/kg p.o. + APAP, curative): 46.23 ± 1.73 μmole of p-nitophenol formed/min/L | Serum ALP, hepatoprotective activity percent ([3]; 25 mg/kg p.o. + APAP, curative): (34.15 ± 5.39) percent | Serum GOT ([3]; 25 mg/kg p.o. + APAP, curative): 880.10 ± 60.29 Units | Serum GOT, hepatoprotective activity percent ([3]; 25 mg/kg p.o. + APAP, curative): (41.26 ± 4.72) percent | Serum GPT ([3]; 25 mg/kg p.o. + APAP, curative): 320.07 ± 41.33 Units | Serum GPT, hepatoprotective activity percent ([3]; 25 mg/kg p.o. + APAP, curative): (67.52 ± 7.71) percent | Serum Triglycerides ([3]; 25 mg/kg p.o. + APAP, curative): 13.47 ± 0.89^NS mg % | Serum Triglycerides, hepatoprotective activity percent ([3]; 25 mg/kg p.o. + APAP, curative): (43.32 ± 10.80) percent | Serum ALP ([3]; 50 mg/kg p.o. + APAP, curative): 41.44 ± 1.27 μmole of p-nitophenol formed/min/L | Serum ALP, hepatoprotective activity percent ([3]; 50 mg/kg p.o. + APAP, curative): (49.04 ± 3.94) percent | Serum GOT ([3]; 50 mg/kg p.o. + APAP, curative): 619.36 ± 88.89 Units | Serum GOT, hepatoprotective activity percent ([3]; 50 mg/kg p.o. + APAP, curative): (61.67 ± 6.96) percent | Serum GPT ([3]; 50 mg/kg p.o. + APAP, curative): 282.74 ± 32.96 Units | Serum Triglycerides ([3]; 50 mg/kg p.o. + APAP, curative): 12.34 ± 0.85 mg % | Serum Triglycerides, hepatoprotective activity percent ([3]; 50 mg/kg p.o. + APAP, curative): (56.84 ± 10.23) percent | Serum ALP [3, 14]: 35.08 ± 2.18 μmole of p-nitophenol formed/min/L | Serum ALP, hepatoprotective activity percent [3, 14]: (68.82 ± 6.78) percent | Serum GOT [3, 14]: 310.53 ± 45.32 Units | Serum GOT, hepatoprotective activity percent [3, 14]: (85.85 ± 4.25) percent | Serum GPT [3, 14]: 235.59 ± 22.77 Units | Serum GPT, hepatoprotective activity percent [3, 14]: (83.33 ± 1.99) percent | Serum Triglycerides [3, 14]: 10.87 ± 0.69 mg % | Serum Triglycerides, hepatoprotective activity percent [3, 14]: (74.48 ± 8.37) percent | Serum ALP [3, 15]: 22.57 ± 2.95 μmole of p-nitophenol formed/min/L | Serum GOT [3, 15]: 133.77 ± 20.84 Units | Serum GPT [3, 15]: 129.65 ± 24.84 Units | Serum Triglycerides [3, 15]: 7.43 ± 0.89 mg % | Zoxazolamine Hepatoprotection [4, 16]: 40.10 ± 6.55% | Zoxazolamine Paralysis time [4, 16]: 39.00 ± 1.93*^c min | Zoxazolamine Hepatoprotection [4, 17]: 51.40 ± 11.12% | Zoxazolamine Paralysis time [4, 17]: 35.66 ± 3.28**^c min | Zoxazolamine Hepatoprotection [4, 18]: 70.61 ± 7.68% | Zoxazolamine Paralysis time [4, 18]: 30.00 ± 2.26**^c min | Zoxazolamine Hepatoprotection [4, 19]: 84.17 ± 6.55% | Zoxazolamine Paralysis time [4, 19]: 26.00 ± 1.93**^c min
